According to patent US7371737B2, “2-substituted-6-trifluoromethyl purine derivatives with adenosine-A3 antagonistic activity” (Solvay Pharmaceuticals, B.V., priority 2004, dated 2008):

Columns and labels:
[1] = biological target: T1, human Adenosine A3 receptor (Homo sapiens, UniProt P0DMS8); assay: In vitro affinity for human adenosine-A3 receptors (radioligand [125I]-AB-MECA); format: binding; parameters: expressed in transfected cells; host or cells: HEK 293 cells (membrane preparations); conditions: membranes of HEK 293 cells stably expressing human A3, [125I]-AB-MECA, 22° C., 90 minutes; for Ki: read-out: Adenosine receptor affinity (binding) A3 pKi (converted)
T1 sequence (P0DMS8 1-318): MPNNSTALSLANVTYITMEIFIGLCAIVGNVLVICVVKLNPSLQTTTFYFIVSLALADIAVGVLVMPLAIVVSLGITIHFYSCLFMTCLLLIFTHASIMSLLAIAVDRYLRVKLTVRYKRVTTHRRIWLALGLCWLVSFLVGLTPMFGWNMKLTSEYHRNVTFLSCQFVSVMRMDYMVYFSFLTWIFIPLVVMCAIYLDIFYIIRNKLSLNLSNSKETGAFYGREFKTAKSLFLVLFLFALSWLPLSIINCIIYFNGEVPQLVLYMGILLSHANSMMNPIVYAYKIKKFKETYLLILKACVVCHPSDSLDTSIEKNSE
Procedure: Affinity of the compounds for human adenosine-A3 receptors was determined using the receptor binding assay described by C. A. Salvatore et al.: “Molecular cloning and characterization of the human A3 adenosine receptor”, Proc. Natl. Acad. Sci. USA, 90, 10365-10369, 1993. Briefly, membrane preparations were obtained from human recombinant (HEK 293) cells in which the human adenosine-A3 receptor was stably expressed. […] Separation of bound radioactivity from free was done by filtration through Packard GF/B glass fiber filters with several washings with ice-cold buffer using a Packard cell harvester. Bound radioactivity was measured with a scintillation counter (Topcount, Packard) using a liquid scintillation cocktail (Microscint 0, Packard). […] Determination of In Vitro Functional Activity on Human Adenosine A3 Receptors Using an Aequorin-based Assay

[2] = biological target: T2, human adenosine-A1 receptors (Homo sapiens, UniProt P30542); assay: In vitro affinity for human adenosine-A1 receptors (radioligand [3H]DPCPX); format: binding; conditions: human recombinant receptors expressed in CHO cells; for Ki: read-out: Adenosine receptor affinity (binding) A1 pKi (converted)
T2 construct: expressed in transfected cells; host or cells: CHO cells
T2 sequence (P30542 1-326): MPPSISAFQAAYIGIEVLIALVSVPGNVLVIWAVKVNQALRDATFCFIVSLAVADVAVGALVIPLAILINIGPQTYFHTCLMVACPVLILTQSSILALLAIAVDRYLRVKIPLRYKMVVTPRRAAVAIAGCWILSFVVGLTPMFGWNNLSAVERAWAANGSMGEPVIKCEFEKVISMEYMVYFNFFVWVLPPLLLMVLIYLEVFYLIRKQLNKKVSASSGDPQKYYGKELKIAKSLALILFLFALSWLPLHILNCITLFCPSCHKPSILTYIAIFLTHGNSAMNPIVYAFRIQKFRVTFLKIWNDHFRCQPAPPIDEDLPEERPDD
Procedure: Affinity of the compounds for human adenosine-A1 receptors was determined using the receptor binding assay described by A. Townsend-Nicholson and P. R. Schofield (Biol. Chem., 269, 2373, 1994), using human recombinant receptors expressed in CHO cells, and [^3H]DPCPX as radioligand.

[3] = biological target: T3, human adenosine-A2A receptors (Homo sapiens, UniProt P29274); assay: In vitro affinity for human adenosine-A2A receptors (radioligand [3H]CGS 21680); format: binding; conditions: human recombinant receptors expressed in HEK-293 cells; for Ki: read-out: Adenosine receptor affinity (binding) A2A pKi (converted)
T3 construct: expressed in transfected cells; host or cells: HEK-293 cells
Procedure: Affinity of the compounds for human adenosine-A2A receptors was determined using the receptor binding assay described by D. R. Luthin et al., (Mol. Pharmacol., 47, 307, 1995), using human recombinant receptors expressed in HEK-293 cells, and [^3H]CGS 21680 as radioligand.

[4] = biological target: T1, human Adenosine A3 receptor; assay: In vitro functional activity on human adenosine A3 receptors using an Aequorin-based assay; format: cell-based; parameters: A. et al. (Acc. Number GenBank: L22607); host or cells: CHO-K1 cells stably expressing mitochondrially targeted aequorin and Galpha16; conditions: hA3-Aequorin CHO-K1 cells; for EC50: agonist mode, concentrations up to 10^−5 M, read-out: Functional activity A3 agonism pEC50 (converted); for Kb: antagonist mode, N6-benzyl-NECA as the agonist, read-out: Functional activity A3 antagonism pA2 (converted)
From the text: A stable monoclonal hA3-Aequorin cell line was provided by Euroscreen. The coding region encoding the human Adenosine A3 receptor was amplified by polymerase chain reaction (PCR), using human lung cDNA as template. The PCR product was ligated in the expression vector pEFIN3 (Invitrogen), and the complete sequence of the insert was then established. […] A. et al. (Acc. Number GenBank: L22607). The expression plasmid containing the coding sequence of the human Adenosine A3 receptor was transfected in CHO-K1 cells stably expressing mitochondrially targetted Aequorin and Gα16. Resistant clones were selected in the presence of 400 μg/ml G418 and isolated by limiting dilution. […] The hA3-Aequorin cells express mitochondrially targetted apo-Aequorin. Cells have to be loaded with coelenterazine, in order to reconstitute active Aequorin. After binding of agonists to the hA3 receptor, the intracellular calcium concentration increases, which leads to a luminescent response. Binding of calcium to the apo-Aequorin/coelenterazine complex leads to an oxidation reaction of coelenterazine, which results in the production of apo-Aequorin, coelenteramide, CO2 and light (λmax 469 nm). This luminescent response is dependent on the agonist concentration.
Assay-protocol: • Dilute the loaded cells 18× in Dulbecco's medium without PhenolRed (Gibco BRL), pre-heated to 37° C., resulting in a concentration of 2.8*10^5 cells/ml. • Stir for 1 hour at room temperature. • Add 10 μl compound or control per well in white 96-well plates. • Add 90 μl of diluted cells (2.5*10^4 cells/well). • Measure chemoluminescence immediately for 20 seconds. • In antagonist mode 50 μl 10^−6 N6-benzyl-NECA is added as the agonist. • Measure chemoluminescence immediately for 20 seconds using the MicroBetaJet (PerkinElmer).

T3 sequence (P29274 whole entry): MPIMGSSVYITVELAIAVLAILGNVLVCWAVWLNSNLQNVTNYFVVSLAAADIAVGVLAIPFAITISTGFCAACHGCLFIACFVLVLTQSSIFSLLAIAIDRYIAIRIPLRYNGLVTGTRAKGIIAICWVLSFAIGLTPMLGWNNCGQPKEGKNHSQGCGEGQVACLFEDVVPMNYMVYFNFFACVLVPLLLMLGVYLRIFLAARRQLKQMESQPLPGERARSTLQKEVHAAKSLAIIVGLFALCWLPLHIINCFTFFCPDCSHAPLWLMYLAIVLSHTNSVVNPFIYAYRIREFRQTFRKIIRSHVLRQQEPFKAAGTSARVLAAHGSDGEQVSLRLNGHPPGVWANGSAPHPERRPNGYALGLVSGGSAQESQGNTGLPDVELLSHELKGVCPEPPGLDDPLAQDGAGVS

Compound	Ki [1] [µM]	Ki [2] [µM]	Ki [3] [µM]	EC50 [4] [µM]	Kb [4] [µM]	Adenosine receptor affinity (binding) A3 pKi [1]	Adenosine receptor affinity (binding) A1 pKi [2]	Adenosine receptor affinity (binding) A2A pKi [3]
CC(C)(C)OC(=O)OCn1cnc2c(C(F)(F)F)nc(NCCc3ccccc3)nc21 [Compound 28, 6-trifluoromethyl-2-phenetylamino-9-BocOM-purine]	0.0251	2.51	> 10					
OC[C@H]1O[C@@H](n2cnc3c(C(F)(F)F)nc(N4CCC(O)CC4)nc32)[C@H](O)[C@@H]1O [Compound 4, 2-(4-OH-piperidinyl)-6-trifluoromethyl-9-β-D-ribofuranosyl purine]	15.8	> 10	> 10	> 10	0.2			
Cn1c(-c2ccccc2)nc2c(C(F)(F)F)nc(NCCc3ccccc3)nc21 [Compound 19, 8-phenyl-6-trifluoromethyl-9-methyl-2-phenethylamino purine]	2	> 10	7.94					
CC(C)(C)OC(=O)OCn1cnc2c(C(F)(F)F)nc(NCc3ccccc3)nc21 [Compound 29, 6-trifluoromethyl-2-benzylamino-9-BocOM-purine]	0.0794	2.51	20	> 10	7.94			
Cn1c(I)nc2c(C(F)(F)F)nc(NCCc3ccccc3)nc21 [Compound 12, 8-iodo-6-trifluoromethyl-9-methyl-2-phenethylamino purine]	2.51	> 10	> 10	> 10	2			
Cn1c(N2CCOCC2)nc2c(C(F)(F)F)nc(NCCc3ccccc3)nc21 [Compound 17, 8-N-morpholinyl-6-trifluoromethyl-9-methyl-2-phenethylamino purine]	1.58	> 10	> 10					
Cn1c(N2CCCC2)nc2c(C(F)(F)F)nc(NCCc3ccccc3)nc21 [Compound 15, 8-N-pyrrolidinyl-6-trifluoromethyl-9-methyl-2-phenethylamino purine]	3.16	> 10	> 10					
Cn1c(NC2CCCC2)nc2c(C(F)(F)F)nc(NCCc3ccccc3)nc21 [Compound 18, 8-cyclopentylamino-6-trifluoromethyl-9-methyl-2-phenethylamino purine]	0.631	3.16	1.26					
Cn1c(-c2ccco2)nc2c(C(F)(F)F)nc(NCCc3ccccc3)nc21 [Compound 13, 8-(furan-2-yl)-6-trifluoromethyl-9-methyl-2-phenethylamino purine]	1.26	> 10	7.94	> 10	0.158			
Cn1cnc2c(C(F)(F)F)nc([N+](=O)[O-])nc21 [Compound 1, 2-nitro-6-trifluoromethyl-9-methyl purine]	3.98	> 10	> 10					
OC[C@H]1O[C@@H](n2cnc3c(C(F)(F)F)nc(NCCc4ccc(O)cc4)nc32)[C@H](O)[C@@H]1O [Compound 27, 2-(4-hydroxy-phenethylamino)-6-trifluoromethyl-9-β-D-ribo-furanosyl purine]	0.01	5.01	3.16					
Cn1c(/C=C/c2ccc(C(F)(F)F)cc2)nc2c(C(F)(F)F)nc(NCCc3ccccc3)nc21 [Compound 24, 8-E-(4-trifluoromethylstyryl)-6-trifluoromethyl-9-methyl-2-phenethylamino purine]	3.98	> 10	> 10					
Cn1c(C#Cc2ccccc2)nc2c(C(F)(F)F)nc(NCCc3ccccc3)nc21 [Compound 23, 8-phenylacetylene-6-trifluoromethyl-9-methyl-2-phenethylamino purine]	0.501	> 10	> 10					
Cn1c(/C=C\c2ccc(C(F)(F)F)cc2)nc2c(C(F)(F)F)nc(NCCc3ccccc3)nc21 [Compound 25, 8-Z-(4-trifluoromethylstyryl)-6-trifluoromethyl-9-methyl-2-phenethylamino purine]	5.01	> 10	> 10					
Cn1c(/C=C/c2ccccc2)nc2c(C(F)(F)F)nc(NCCc3ccccc3)nc21 [Compound 21, 8-E-styryl-6-trifluoromethyl-9-methyl-2-phenethylamino purine]	3.98	> 10	> 10					
OC[C@H]1O[C@@H](n2cnc3c(C(F)(F)F)nc(OCCc4ccccc4)nc32)[C@H](O)[C@@H]1O [Compound 30, 2-phenethyloxy-6-trifluoromethyl-9-β-D-ribofuranosyl purine]	0.158	1.58	3.16					
Cn1c(-c2cccc(F)c2)nc2c(C(F)(F)F)nc(NCCc3ccccc3)nc21 [Compound 20, 8-(3-fluorophenyl)-6-trifluoromethyl-9-methyl-2-phenethylamino purine]	1	7.94	> 10					
OC[C@H]1O[C@@H](n2cnc3c(C(F)(F)F)nc(N4CCCCC4)nc32)[C@H](O)[C@@H]1O [Compound 3, 2-piperidinyl-6-trifluoromethyl-9-β-D-ribofuranosyl purine]						5.4	<5.0	<5.0
Cn1c(/C=C\c2ccccc2)nc2c(C(F)(F)F)nc(NCCc3ccccc3)nc21 [Compound 22, 8-Z-styryl-6-trifluoromethyl-9-methyl-2-phenethylamino purine]	2	> 10	> 10	> 10	1			
Cn1c(N2CCCCC2)nc2c(C(F)(F)F)nc(NCCc3ccccc3)nc21 [Compound 16, 8-N-piperidinyl-6-trifluoromethyl-9-methyl-2-phenethyl amino purine]	3.98	> 10	15.8					
